# Entries after “also recorded” stand apart in the source; their conditions may differ.
# What was measured:
# [1] = Pharmacokinetics following intravenous (IV) dosing; type: in vivo, Sprague-Dawley rats; conditions: male, Sprague-Dawley, rat, plasma, hydroxycodone series, 1 mg/kg IV, Mean ± SD
# Source text: (§1) There were 3 rats/group. All animals were food fasted overnight. […] The predose sample was collected from the JVC.
# (§2) Following the last collection point, the animals were euthanized.
# human mu opioid receptor [2] = target: T1, human mu opioid receptor (Homo sapiens, UniProt P35372); assay: cell-based
# T1 construct: expressed in transfected cells; host or cells: CHO cells
# T1 sequence (P35372 whole entry): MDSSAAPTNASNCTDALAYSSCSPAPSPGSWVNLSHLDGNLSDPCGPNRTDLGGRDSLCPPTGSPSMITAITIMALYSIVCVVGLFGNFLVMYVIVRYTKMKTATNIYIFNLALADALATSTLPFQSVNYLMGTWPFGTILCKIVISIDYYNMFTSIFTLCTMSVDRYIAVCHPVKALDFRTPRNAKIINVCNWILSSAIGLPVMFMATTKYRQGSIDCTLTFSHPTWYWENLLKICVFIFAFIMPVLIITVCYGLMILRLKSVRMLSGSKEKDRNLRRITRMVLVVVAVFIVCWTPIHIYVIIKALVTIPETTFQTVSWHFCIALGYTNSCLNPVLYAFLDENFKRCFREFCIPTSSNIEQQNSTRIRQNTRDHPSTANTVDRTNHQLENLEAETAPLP
# squirrel monkeys = assay: Monkey self-administration model of addictive potential
# Source text: Dose-related effects of the test articles were examined, using two or more doses of each drug in 3-4 subjects in a double alternation schedule in which each unit dose (or vehicle) was used in two consecutive sessions before a change in unit dose.
# Addictive potential of opioid compounds and opioid conjugates of the invention may be assessed through the use of squirrel monkey models as known in the art.
# Under the double alternation schedule, each unit dose (or vehicle) was available for intravenous self-administration for two consecutive sessions before the unit dose was changed. In this way, it was possible to establish the function relating unit dose of intravenous drug to (i) number of injections per session, and/or (ii) the percentage of total responses that occur on the lever leading to self-administration (injection-lever responding, % ILR). Unit doses of drugs ranged from 0.01 to 3.2 mg/kg/injection.
# Sprague-Dawley rats [3] = assay: Abuse liability: three-day substitution test in rats trained to self-administer cocaine; conditions: i.v. self-administration
# [4] = Pharmacokinetics following oral (PO) dosing; type: in vivo, Sprague-Dawley rats; conditions: male, Sprague-Dawley, rat, plasma
# Source text: as §1, §2
# human mu opioid receptor [5] = target: T1, human mu opioid receptor; assay: biochemical; type: binding; conditions: CHO-K1 membranes, [3H]DAMGO 6 nM; read-out: Ki, Mu opioid receptor
# Sprague-Dawley rats [6] = assay: Abuse liability: progressive ratio test in rats trained to self-administer cocaine; type: in vivo; conditions: for reinforcing behavior, progressive ratio: all doses tested
# Description: In the three-day rat substitution tests, rats trained to self-administer cocaine were exposed to saline or test article via intravenous bolus infusions for one hour sessions on three consecutive days.
# The rate of self-administration is determined not only by reinforcing effects of drug but also by the direct effects of the drug on motor behavior. To measure reinforcing effects in a quantitative way, a procedure was utilized in which responding was determined by reinforcing effects uncontaminated with other drug effects. […] See, e.g., Griffiths R R, Brady J V, Bradford L D. Advances in Behavioral Pharmacology (Vol 2).
# Under this schedule, the animal responds on the lever for delivery of test article. For each subsequent drug delivery the total number of responses emitted on the lever required for drug delivery was incremented upward using a logarithmic (base e) scale using the following equation:
# Response requirement=5*e^(response increment*0.2)−5
# The progressive “break point” is defined as the highest number of responses emitted by the animal to earn a single reinforcer delivery of drug or vehicle. This break point is used as a behavioral marker of how much work will be expended by an experimental subject to earn a single reinforcer delivery. The amount of work expended to earn a single reinforcer is used to compare the efficacy of drug deliveries with respect to the hedonic valence induced by the drug injection with the assumption that the subjective hedonic valence of a reinforcer determines its abuse liability.
# male (CD1) mice = assay: Respiratory depression, whole body plethysmography with CO2 challenge; conditions: equianalgesic doses (100 mg/kg vs oxycodone 30 mg/kg, gavage)
# Description: The animals were housed in SPF conditions. The animal housing facilities were maintained at 72°+/−2° F. with a light cycle of 12:12 hours (light:dark). Autoclaved rodent chow and water are provided ad libitum.
# Approximate measurements of minute ventilation were carried out using Buxco unrestrained whole body plethysmographs (WBP). Digital computer aided analysis of the analog signal was used to report measurements of tidal volume, frequency of breathing, minute ventilation, inspiratory and expiratory times and flows as well as other derived measurements.
# To more clearly delineate the effect of these test articles on respiratory depression, a hypercapnic ventilatory stimulus (CO2) was added to the animals' breathing air supply to stimulate ventilation.
# Mice received the drug by gavage and then were placed in the WBP. […] The mouse remained in that atmosphere for 10 minutes, after which time the chamber was flushed with zero grade air for another 20 min to allow ventilation to return to baseline. The mouse was challenged again with 8% CO2 for 10 minutes. […] The last 2 minutes of each of the two conditions (Air or 8% CO2) was recorded and analyzed for the following respiratory parameters: minute ventilation, respiratory frequency, tidal volume, and time of inspiration/expiration for animals in each dose group.
# [7] = listed as mPEG6-O-hydroxycodone
# [8] = hydroxycodone series, 5.0 mg/kg oral, Mean ± SD
structure (smiles),measurement,setting,value
"COCCOCCOCCOCCOCCOCCOC1CCC2(O)C3Cc4ccc(OC)c5c4C2(CCN3C)C1O5 (stereo not drawn) [α-6-mPEG6-O-hydroxycodone, α-6-mPEG6-O-oxycodone]",AUC,[1],210 ng·h/mL
same,AUC(0-inf),[1],218 ng·h/mL
same,MRT last,[1],47.7 min
same,clearance,[1],77.9 ± 14.4 mL/min/kg
same,Cmax,[1]; read-out: Cmax,445 ± 83.6 ng/mL
same,half-life,[1]; read-out: T1/2(z),62.2 ± 5.17 min
same,Vd,[1]; read-out: Vss,4.68 ± 0.938 L/kg
same,Emax,"human mu opioid receptor [2]; maximal response at the highest tested concentration, read-out: % max effect, mu opioid receptor",102%
same,EC50,"human mu opioid receptor [2]; read-out: EC50, mu opioid receptor",12.5 µM
same,injection lever responses (% ILR),squirrel monkeys; 0.03 mg/kg/injection,only food lever responses
same,injection lever responses (% ILR),squirrel monkeys; 1 mg/kg/injection,39%
same,subjects showing addictive behavior,squirrel monkeys; 1 mg/kg/injection,25%
same,injection lever responses (% ILR),"squirrel monkeys; 1 mg/kg/injection, listed as α-mPEG-6-O-hydroxycodone",38±24%
same,subjects showing addictive behavior,squirrel monkeys; 3 mg/kg/injection,50%
same,"reinforcing behavior, three-day substitution",Sprague-Dawley rats [3],no reinforcing behavior was observed; also recorded: lack of reinforcing behavior
same,"reinforcing behavior, three-day substitution",Sprague-Dawley rats [3]; [7],no behavioral evidence of positive reinforcement
same,bioavailability,"[4]; po, 5 mg/kg",55.3%
same,AUC,[4]; [8],585 ng·h/mL
same,MRT last,[4]; [8],2.57 h
same,AUC(0-inf),"[4]; hydroxycodone series, 5.0 mg/kg oral, Mean ± SD, * n = 2",603 ng·h/mL
same,half-life,"[4]; hydroxycodone series, 5.0 mg/kg oral, Mean ± SD, * n = 2, read-out: T1/2(z)",85.4 ± 7.83 min
same,Cmax,"[4]; hydroxycodone series, 5.0 mg/kg oral, Mean ± SD, read-out: Cmax",171 ± 76.6 ng/mL
same,Tmax,"[4]; hydroxycodone series, 5.0 mg/kg oral, median value, read-out: Tmax (converted)",2 h
same,Ki,human mu opioid receptor [5],1900 nM
same,progressive ratio break point,Sprague-Dawley rats [6]; 1.0 mg/kg/injection,21
same,"reinforcing behavior, progressive ratio",Sprague-Dawley rats [6],no reinforcing behavior was observed; also recorded: no reinforcing behaviour was exhibited
same,"reinforcing behavior, progressive ratio",Sprague-Dawley rats [6]; [7],showed no reinforcing properties and behaved like saline
same,respiratory depression compared to oxycodone,male (CD1) mice; listed as PEG-6-O-hydroxycodone,produces less respiratory depression than oxycodone
same,respiratory depression compared to oxycodone,male (CD1) mice; [7],less respiratory depression

# From patent US20130023553A1, “PEGYLATED OPIOIDS WITH LOW POTENTIAL FOR ABUSE AND SIDE EFFECTS” (Nektar Therapeutics, priority 2010, published 2013)
